{"source": "patent US12186332B2", "about": "“Methods for overcoming WNT/beta-catenin anti-cancer resistance in leukemia stem cells” (STOWERS INSTITUTE FOR MEDICAL RESEARCH, priority 2019, dated 2025)", "key": {"[1]": {"system": "Akt-enhanced β-catenin activity (TOP-Luc)", "assay": "HTS TOPFlash/FOPFlash luciferase reporter dose-response", "type": "cell-based", "details": "DNR dose-response (FIG. 13A)"}, "[2]": {"system": "blast cells, LSCs and HSPCs of leukemic Pten:β-cat^Act mice", "type": "in vivo", "details": "low-dose DNR with chemotherapy", "method": "Leukemic mice were treated with vehicle, chemotherapy, [Low]DXR (5×0.5 mg/kg), clinical DXR (1×20 mg/kg), or chemotherapy+[Low]DXR as described in FIG. S2.\nAverage frequency of each population (n≥6 per group) is shown.\nAbsolute number/femur±SD of each population (n≥6 per group) is shown.\nAt 10 days post-treatment, BM was analyzed by flow cytometry to determine frequency of blast cells. Average frequency±SD (n 6 per group). Note that this experiment used clinical dose (normal) or [Low]\nAlternatively, a single injection on day 1 of 0.8 or 2.5 μg/g of DXR-loaded nanoparticles (NanoDXR) was given with and without chemotherapy. At 10 days post-treatment, BM was analyzed by flow cytometry to determine frequency of LSCs. Shown is average frequency±SD (n 6 per group).\nAlternatively, a single injection on day 1 of 0.8 or 2.5 μg/g of DXR-loaded nanoparticles (NanoDXR) was given with and without chemotherapy. At 10 days post-treatment, BM was analyzed by flow cytometry to determine frequency of HSPCs. Shown is average frequency±SD (n 6 per group).\nWhole bone marrow was isolated from uninduced HSC-SCL-Cre^+ Pten^fx/fx βcat^fx(Exon3)/+ (Pn:β-cat^Act) mice and combined with an equal portion of Cre negative bone marrow from a littermate and transplanted into irradiated (10 Grays) B6.SJL-Ptprc^a Pepc^b/BoyJ (Ptprc) recipients.\nChemotherapy for the animal model consisted of Nelarabine (Selleck) and Dexamethasone (BioVision) administered daily for 5 days consecutively. 43.4 mg/ml Nelarabine was administered intravenously via the tail vain according to the formula: Body Weight (g)×5=volume to inject (μl), which yielded 217 mg/kg. 2.5 mg/ml Dexamethasone was injected intraperitoneally according to the formula: Body Weight (g)×4=volume to inject (μl), yielding 10 mg/kg. […] [Low] NanoDXR treatment used doxorubicin nanoparticles (Tran et al. 2014) administered as a single IV injection once per week on day 1 relative to above treatments using 0.8 mg/kg. Maintenance [Low] NanoDXR consisted of once per week injections of 0.4 mg/kg. Groups combining Nelarabine with Doxorubicin used a single injection containing both drugs. All drugs were solubilized in 45% (2-Hydroxypropyl)-p-cyclodextrin (HBC) or 0.9% NaCl.\nCells were collected from bone marrow (femur and tibia), spleen, peripheral blood, and thymus. For cell surface phenotyping, a lineage cocktail (Lin) was used including CD3 (for HSPC but not LSC analysis), CD4, CD8, Mac-1, Gr, B220, IgM, and Ter119 (eBioscience, San Diego, CA). Monoclonal antibodies against CD3 (separate fluorophore for LSC analysis), Sca-1, c-Kit, CD45.1, and CD45.2 were also used where indicated. Cell sorting and analysis were performed using an inFlux (BD), MoFlo (Dako, Ft. Collins, CO) and/or CyAn ADP (Dako, Ft. Collins, CO). Data analysis was performed using FlowJo software (Ashland, OR)."}, "[3]": {"system": "pS^552-β-cat^+ LSCs", "assay": "Pilot clinical trial of low-dose DNR in relapsed/refractory adult AML", "type": "in vivo, human", "details": "low-dose DNR 6.75 mg/m^2 daily ×5; BM day 0 vs day 8", "source_text": "This was registered at clinicaltrials.gov (identifier NCT02914977). All patients provided informed consent according to institutional guidelines. At least two prior induction attempts were required for fit patients with primary refractory leukemia; unfit or relapsed patients were allowed entry with one prior therapy. There was no limit on number of prior therapies. […] Exclusion criteria included presence of acute promyelocytic leukemia, CNS leukemia or total lifetime anthracycline exposure exceeding the equivalent of 900 mg/m^2 of DNR. Treatment consisted of bone marrow aspiration for correlative studies followed by one cycle of low dose DNR (6.75 mg/m^2×5 consecutive days, days 1-5) and second bone marrow aspiration on day 8. Effects on LSC population were measured by flow cytometry. Adverse events (AEs) and laboratory values were monitored for safety. This study is compliant with all relevant ethical regulations regarding research involving human participants and was approved by the Human Subjects Committee at the University of Kansas."}}, "data": [{"molecule": "COc1cccc2c1C(=O)c1c(O)c3c(c(O)c1C2=O)C[C@@](O)(C(C)=O)C[C@@H]3O[C@H]1C[C@H](N)[C@H](O)[C@H](C)O1", "note": "[DNR, Daunorubicin]", "values": [{"measurement": "inhibition of pS552-β-catenin compared with DXR", "setting": "[1]", "value": "similarly inhibits pS^552-β-catenin"}, {"measurement": "LSC, HSPC and blast cell frequency compared with low-dose doxorubicin", "setting": "[2]", "value": "performs similarly to low-dose doxorubicin"}, {"measurement": "patients with substantial reductions in pS552-β-cat+ LSCs", "setting": "[3]", "value": "5/10"}, {"measurement": "patients with unchanged pS552-β-cat+ LSCs", "setting": "[3]", "value": "3/8"}]}]}
